This assay concerns brain EC monolayer. As to the kind of experiment: Transcytosis assay with chemical-inhibition of endocytosis. The note with it: endothelial cells pretreated with increasing doses of endocytosis inhibitor. The format is cell-based, Human. On the procedure:
The model was optimized for this novel application. […] The cells become confluent in 48-72 hours. […] A-2) Transcytosis assay with chemical-inhibition of endocytosis: Transcytosis occurs following the uptake of macromolecules or EVs via endocytosis. […] A variety of chemicals that target different steps of endocytosis (e.g. Dynasore, filipin, etc.) can be used to pretreat the endothelial cells in the transwell® model to inhibit endocytosis prior to the transcytosis assay. […] It is worth to note that the endocytosis of EVs depends on the interaction of EV surface proteins with endothelial cell receptors, which depending on the EV proteins involved can go through different routes of endocytosis (clathrin-dependent, clathrin-independent, etc.).

On to `O=C(N/N=C/c1ccc(O)c(O)c1)c1cc2ccccc2cc1O` [Dynasore], for which the “fluorescence intensity in the lower chamber (EV transcytosis signal)” value is recorded as “decreased with increasing doses”.

The values are drawn from patent US12241888B2, “Platform for assessment of the transcytosis of extracellular vesicles across endothelial barriers and uses thereof” (Children's Medical Center Corporation, priority 2018, dated 2025).
